Experimental data from publication PMC9252919, “Controlled masking and targeted release of redox-cycling ortho-quinones via a C–C bond-cleaving 1,6-elimination” (Nature Chemistry, 2022).

Experiments:
[1] = Quantitative LC-MS/MS of β-lapachone in xenograft mouse tumour; format: in vivo, NOD-SCID mice; details: fixed tumour homogenate of mice treated with ADC Gem-HC-239iC-BL
Procedure: Concentrations of β-lapachone in formalin-fixed tumour and the respective formol supernatant were quantified using reversed-phase ultra-high-performance liquid chromatography tandem mass spectrometry as previously described. Care was taken during sample handling to minimize exposure to light, and amber glass/plastic and foil wrapping were used where possible. Tumour tissue was homogenized to a concentration of 200 mg ml^−1 with PBS. An aliquot of homogenate or formol supernatant sample was transferred to a fresh tube with cryptotanshinone (internal standard) in ethyl acetate for liquid–liquid extraction. Samples were mixed, centrifuged and the ethyl acetate layer transferred to a 96-well plate, evaporated and reconstituted in 0.1% formic acid in acetonitrile:water 70:30. PBS was used as the surrogate matrix for calibration standards and quality-control samples. The calibration ranges were 0.25–250 ng g^−1 (homogenate) and 0.05–50 ng ml^−1 (formol). The analytical batches included quality-control samples at low, medium and high concentrations. The analysis was performed on a Shimadzu Nexera X2 UHPLC coupled to a Sciex TripleTOF 6600 mass spectrometer. The extracted samples were injected onto a Phenomenex Kinetex EVO C18, 1.7 µm, 50 × 2.1 mm analytical column, at 35 °C. […]

CD33+ HL-60 cells = assay: Viability assay with small-molecule prodrugs and ADCs, HL-60; format: cell-based, human; details: Homo sapiens, read-out: IC50 against CD33+ HL-60 cells
Procedure: (§1) For assays assessing cytotoxicity of β-lapachone versus small-molecule prodrugs, antibodies and ADCs, suspension cells were plated into 24-well plates at a density of 2.5 × 10^5 cells ml^−1 in 240 µl. Stocks of ADC or antibody in PBS were normalized to 12.5 µM. Serial dilutions of compound were made up in PBS. Then, 60 µl of each stock of either PBS or compound in PBS was added to the cells to achieve the desired final concentration. After the specified incubation time, toxicity was assessed by counting of live cells using the trypan blue exclusion method with a Countess II Automated Cell Counter (ThermoFisher Scientific) according to the manufacturer’s instructions. Cell viability was determined by dividing the average live cell number of treated wells by the average live cell number for control wells treated with PBS only. IC50 values were calculated using GraphPad Prism software. Note: for the assay performed over 96 h, 5% human serum was added to media instead of 10% fetal bovine serum, to limit non-specific antibody internalisation. This had little effect on ADC toxicity.

HL-60 cells [2] = assay: Lysosomal deacidification and inhibition assay; format: cell-based, human; details: HL-60, NH4Cl 30 mM
Procedure: Assays to assess the effect of lysosomal activity on prodrugs were performed as follows: HL-60 cells were plated into 96-well plates at a concentration of 2.5 × 10^5 cells ml^−1 in 180 µl media. Cells were treated with 10 µl of a stock of NH4Cl in PBS (to obtain an in-plate concentration of 3 or 30 mM), 10 µl of a dilution of a DMSO stock of E64d in PBS (to obtain an in-plate concentration of 30 μM), PBS only or a dilution of DMSO in PBS. Cells were incubated for 30 min. Following this, 10 µl of a stock of test compound made by dilution of a DMSO stock into media was added. DMSO was present in-plate at a maximum of 0.2%. Cells were incubated overnight for 16 h. Following incubation, media was replaced with media containing CellTiter-Blue (Promega) in 1:4 dilution and the plates were incubated for 6 h. The fluorescence of the plates was recorded (excitation, 555 nm; emission, 585 nm; MiniMax i3x Reader, Molecular Devices). Cell viability was calculated by division of the fluorescence intensity of treated wells by that of the average fluorescence intensity of the relevant negative control wells.

AML cell line MOLM-13 = assay: Viability assay with small-molecule prodrugs, MOLM-13; format: cell-based; details: 5 µM, 24 h
Procedure: as §1

[3] = test system: range of cancer cell lines, including leukaemia, breast, colon and cervical cancer; assay: Viability assay (CellTiter-Blue) with small-molecule lapachone models; format: cell-based; details: 48 h
Procedure: Assays assessing cytotoxicity of β-lapachone and derivatives were performed by CellTiter-Blue assay (Promega) according to the manufacturer’s instructions. Briefly, adherent cancer-cell lines were plated at 20,000 cells per well in 96-well plates or suspension cell lines were plated at a concentration of 2 × 10^5 cells ml^−1 in 24-well plates. Compound stocks in media were made by dilution of DMSO stocks containing the compound of interest to obtain a final in-plate DMSO concentration of only 0.1%. Incubation was performed for 48 h. Following incubation, media was replaced with media containing CellTiter-Blue (Promega) in 1:10 dilution and the plates were incubated for 1.5–4 h. The fluorescence of the plates was recorded (excitation, 555 nm; emission, 585 nm; MiniMax i3x Reader, Molecular Devices). Cell viability was calculated by division of the fluorescence intensity of treated wells by that of the calculated average fluorescence intensity of replicate negative control wells containing cells with 0.1% DMSO only. IC50 values were calculated using GraphPad Prism 8 software.

HL-60 cells [4] = assay: Cellular ROS detection with 2',7'-dichlorodihydrofluorescein diacetate; format: cell-based, human; details: 50 µM, 15 min
Procedure: To determine ROS generation by compounds in leukaemia cells, HL-60 cells were washed with PBS, then incubated in serum-free media (10 ml of 1.6 × 10^6 ml^−1 cell concentration) with 2,7-dichlorofluorescin diacetate at 20 µM for 30 min at 37 °C. Following this, the cells were washed with PBS and resuspended in Fluorbrite–DMEM media (ThermoFisher) (10 ml). Then, 450 µl of the cell mixture was seeded into wells of a clear flat-bottomed 12-well plate, to which 50 µl of a 10× stock of the compounds in media had been already added, to achieve a final compound concentration of 50 µM. The 10× media stocks were made by 100-fold dilution of DMSO compound stocks, to ensure a final in-plate DMSO concentration of 0.1%. DMSO 0.1% only was used as a negative control. […] After plating the cells were immediately incubated at 37 °C in the dark for 15 min before the fluorescence of the wells (excitation, 485 nm; emission, 535 nm) was recorded (MiniMax i3x Imager, Molecular Devices).

Compound	concentration of 1 in tumour tissue [1] [ng/g]	IC50 (CD33+ HL-60 cells) [nM]	toxicity with NH4Cl at 30 mM (HL-60 cells [2])	toxicity to MOLM-13 at 5 µM (AML cell line MOLM-13)	decrease in toxicity relative to 1 [3] [fold]	ROS generation in HL-60 (HL-60 cells [4])
CC1(C)CCC2=C(O1)c1ccccc1C(=O)C2=O [Compound 1, β-lapachone, reference compound]	0.327	~1000	increase in toxicity	complete cell death	–	–
CC1(C)CCC2=C(O1)c1ccccc1C(O)(Cc1ccccc1)C2=O (stereo not drawn) [Compound 24, benzyl β-lapa-ketol]	–	–	–	–	> 20	did not generate detectable ROS
